Experiment [1] addresses DNA polymerase I, thermostable (Thermus aquaticus) (UniProt P19821). The experiment is described as follows: Ability to inhibit Taq polymerase in vitro at a concentration of 10 uM; NI means No inhibition.
In experiment [2] the target is Telomerase reverse transcriptase (Homo sapiens, UniProt O14746). The experiment in a line: Ability to inhibit human telomerase in a modified cell-free TRAP assay using extracts from A2780 cell line.
Experiment [3] has as its target DNA polymerase I, thermostable (Thermus aquaticus) (UniProt P19821). The experiment is described as follows: Ability to inhibit Taq polymerase in vitro at a concentration of 50 uM; NI means No inhibition.
A further experiment concerns CH1. The experiment in a line: In vitro cytotoxicity against human ovarian carcinoma cell line CH1 using sulforhodamine B (SRB) assay. Type of experiment: functional, cell-based. (In SRB staining, fixed cells bind dye roughly in proportion to their protein.)
A further experiment relates to A2780. The experiment is described as follows: In vitro cytotoxicity against human ovarian carcinoma cell line A2780 using sulforhodamine B (SRB) assay. It counts as functional, cell-based.
The subject of another experiment is SK-OV-3. The experiment is described as follows: In vitro cytotoxicity against human ovarian carcinoma cell line SKOV-3 using sulforhodamine B (SRB) assay. Type of experiment: functional, cell-based.
Experiment [4] addresses DNA polymerase I, thermostable (Thermus aquaticus) (UniProt P19821). The experiment in a line: Ability to inhibit Taq polymerase in vitro at a concentration of 20 uM; NI means No inhibition.

Active and inactive are the calls of the source. The rule behind the calls is not given here.

Sequence of Telomerase reverse transcriptase (O14746 whole entry): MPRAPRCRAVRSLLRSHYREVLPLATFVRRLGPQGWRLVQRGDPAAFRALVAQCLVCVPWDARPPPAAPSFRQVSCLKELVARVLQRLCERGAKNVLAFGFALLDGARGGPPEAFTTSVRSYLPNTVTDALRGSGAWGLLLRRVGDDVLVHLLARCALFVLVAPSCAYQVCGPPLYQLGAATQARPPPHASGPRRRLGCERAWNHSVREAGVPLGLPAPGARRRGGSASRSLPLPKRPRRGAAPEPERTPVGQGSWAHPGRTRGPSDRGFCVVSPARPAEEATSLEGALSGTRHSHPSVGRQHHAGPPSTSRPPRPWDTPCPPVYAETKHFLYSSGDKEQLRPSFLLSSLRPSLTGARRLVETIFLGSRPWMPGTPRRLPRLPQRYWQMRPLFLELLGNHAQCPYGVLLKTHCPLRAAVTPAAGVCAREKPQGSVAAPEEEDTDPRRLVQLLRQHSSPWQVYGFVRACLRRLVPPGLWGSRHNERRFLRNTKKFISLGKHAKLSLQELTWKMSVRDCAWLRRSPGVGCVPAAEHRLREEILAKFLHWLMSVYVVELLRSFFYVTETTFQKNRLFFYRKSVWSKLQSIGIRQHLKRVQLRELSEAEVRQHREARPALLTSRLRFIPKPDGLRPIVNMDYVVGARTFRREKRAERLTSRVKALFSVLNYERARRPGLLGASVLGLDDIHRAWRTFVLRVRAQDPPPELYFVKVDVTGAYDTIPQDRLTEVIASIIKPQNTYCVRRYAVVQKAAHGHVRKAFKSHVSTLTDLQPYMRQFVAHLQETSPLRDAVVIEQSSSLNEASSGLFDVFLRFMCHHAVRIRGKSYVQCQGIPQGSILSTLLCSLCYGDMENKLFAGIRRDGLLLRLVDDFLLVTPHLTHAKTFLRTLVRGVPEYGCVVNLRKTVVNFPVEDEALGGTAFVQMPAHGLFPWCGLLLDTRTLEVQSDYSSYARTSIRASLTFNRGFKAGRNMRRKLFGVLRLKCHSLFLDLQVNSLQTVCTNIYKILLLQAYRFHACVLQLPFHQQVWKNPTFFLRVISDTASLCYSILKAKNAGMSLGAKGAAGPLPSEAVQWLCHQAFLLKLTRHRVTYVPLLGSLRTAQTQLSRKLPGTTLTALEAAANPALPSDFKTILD
Sequence of DNA polymerase I, thermostable (Thermus aquaticus) (P19821 whole entry): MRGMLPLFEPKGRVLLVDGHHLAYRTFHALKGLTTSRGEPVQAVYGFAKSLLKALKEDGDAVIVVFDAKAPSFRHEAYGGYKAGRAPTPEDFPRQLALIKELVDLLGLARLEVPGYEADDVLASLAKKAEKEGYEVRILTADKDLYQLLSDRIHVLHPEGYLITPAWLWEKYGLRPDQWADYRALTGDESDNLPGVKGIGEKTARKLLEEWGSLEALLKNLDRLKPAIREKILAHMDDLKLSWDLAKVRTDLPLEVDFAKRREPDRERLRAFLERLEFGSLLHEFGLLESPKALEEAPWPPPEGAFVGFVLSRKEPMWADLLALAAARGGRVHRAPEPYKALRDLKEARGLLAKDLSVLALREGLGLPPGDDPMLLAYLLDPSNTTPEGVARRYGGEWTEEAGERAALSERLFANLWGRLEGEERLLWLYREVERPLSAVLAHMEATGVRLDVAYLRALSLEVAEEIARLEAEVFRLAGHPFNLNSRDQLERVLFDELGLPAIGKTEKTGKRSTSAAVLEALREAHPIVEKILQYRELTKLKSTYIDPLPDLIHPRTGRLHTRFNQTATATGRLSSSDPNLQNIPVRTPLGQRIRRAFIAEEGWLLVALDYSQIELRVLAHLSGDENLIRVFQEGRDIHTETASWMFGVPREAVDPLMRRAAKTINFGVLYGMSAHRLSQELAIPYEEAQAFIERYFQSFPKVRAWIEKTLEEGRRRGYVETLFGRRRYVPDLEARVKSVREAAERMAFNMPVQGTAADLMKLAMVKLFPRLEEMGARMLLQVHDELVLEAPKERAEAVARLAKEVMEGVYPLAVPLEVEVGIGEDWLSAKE

As for `CCN(CC)CCC(=O)Nc1ccc2cc3ccc(NC(=O)CCN(CC)CC)cc3nc2c1`, the inhibition entry in experiment [1], in experiment [3] and in experiment [4] was “inactive” throughout. Also, the IC50 (usually the concentration that gives 50% inhibition) amounted to 5800 nM in experiment [2], 2450 nM in the experiment on CH1, 570 nM with A2780 and 2250 nM in the experiment on SK-OV-3.
As for `O=C(CCN1CCCCCCC1)Nc1ccc2cc3ccc(NC(=O)CCN4CCCCCCC4)cc3nc2c1`, the inhibition result in experiment [1], in experiment [3] and in experiment [4] was “inactive” throughout. The IC50 in experiment [2] is more than 50000 nM; in the experiment on CH1 it was 2200 nM; in the experiment on A2780, 1300 nM; in the experiment on SK-OV-3, 2300 nM.
With `O=C(CCN1CCC(Cc2ccccc2)CC1)Nc1ccc2cc3ccc(NC(=O)CCN4CCC(Cc5ccccc5)CC4)cc3nc2c1`, the inhibition result in experiment [1], in experiment [3] and in experiment [4] was “inactive” throughout. In addition, the IC50 is more than 50000 nM in experiment [2], 110 nM in the experiment with CH1, 310 nM in the experiment with A2780 and 880 nM in the experiment on SK-OV-3.
For `O=C(CCN1CCC(O)CC1)Nc1ccc2cc3ccc(NC(=O)CCN4CCC(O)CC4)cc3nc2c1`, the inhibition entry in experiment [1], in experiment [3] and in experiment [4] was “inactive” each time. The IC50 is 8000 nM in experiment [2], 15000 nM in the experiment with CH1, 6200 nM in the experiment with A2780 and 13000 nM in the experiment on SK-OV-3.
`O=C(CCN1CCOCC1)Nc1ccc2cc3ccc(NC(=O)CCN4CCOCC4)cc3nc2c1`: the inhibition entry in experiment [1], in experiment [3] and in experiment [4] was “inactive” each time. The IC50 was more than 50000 nM in experiment [2], 15000 nM with CH1, 3100 nM with A2780 and 13000 nM in the experiment with SK-OV-3.
For the compound `CC1(C)CC2CC(C)(CN2CCC(=O)Nc2ccc3cc4ccc(NC(=O)CCN5CC6(C)CC5CC(C)(C)C6)cc4nc3c2)C1`, the inhibition result in experiment [1], in experiment [3] and in experiment [4] was “inactive” each time. Moreover, the IC50 in experiment [2] is more than 50000 nM; with CH1 it was 540 nM; with A2780, 500 nM; in the experiment on SK-OV-3 it was 2200 nM.
With `O=C(CCN1CCCCC1)Nc1ccc2cc3ccc(NC(=O)CCN4CCCCC4)cc3nc2c1`, the inhibition entry in experiment [1], in experiment [3] and in experiment [4] was “inactive” each time. Further, the IC50 stood at 2800 nM in experiment [2], 2250 nM in the experiment with CH1, 1700 nM in the experiment with A2780 and 540 nM in the experiment with SK-OV-3.
With `O=C(CCN1CCCCCC1)Nc1ccc2cc3ccc(NC(=O)CCN4CCCCCC4)cc3nc2c1`, the inhibition entry in experiment [1], in experiment [3] and in experiment [4] was “inactive” in each case. The IC50 was found to be 3100 nM in experiment [2], 1850 nM in the experiment on CH1, 1100 nM in the experiment with A2780 and 2500 nM in the experiment with SK-OV-3.
For the compound `O=C(CCN1CCCCC1CCO)Nc1ccc2cc3ccc(NC(=O)CCN4CCCCC4CCO)cc3nc2c1` (configuration not stated), the inhibition result in experiment [1], in experiment [3] and in experiment [4] was “inactive” each time. Besides, the IC50 was determined as 4100 nM in experiment [2], 11000 nM with CH1, 3200 nM in the experiment with A2780 and 10500 nM in the experiment on SK-OV-3.
Take `O=C(CCN1CCCC1)Nc1ccc2cc3ccc(NC(=O)CCN4CCCC4)cc3nc2c1`: the inhibition entry in experiment [1], in experiment [3] and in experiment [4] was “inactive” in each case. In addition, the IC50 was determined as 5200 nM in experiment [2], 8200 nM with CH1, 2650 nM in the experiment with A2780 and 2600 nM in the experiment on SK-OV-3.
Regarding `CC1CCN(CCC(=O)Nc2ccc3cc4ccc(NC(=O)CCN5CCC(C)CC5)cc4nc3c2)CC1`, the inhibition entry in experiment [1], in experiment [3] and in experiment [4] was “inactive” each time. The IC50 in experiment [2] came out at 1350 nM; in the experiment on CH1, 2050 nM; with A2780, 2150 nM; in the experiment with SK-OV-3, 2400 nM.
In the case of `CN(C)CCC(=O)Nc1ccc2cc3ccc(NC(=O)CCN(C)C)cc3nc2c1`, the inhibition result in experiment [1], in experiment [3] and in experiment [4] was “inactive” each time. The IC50 stood at 8200 nM in experiment [2], 9800 nM with CH1, 750 nM with A2780 and 2500 nM in the experiment on SK-OV-3.
For `O=C(CCN1CCCCC1CO)Nc1ccc2cc3ccc(NC(=O)CCN4CCCCC4CO)cc3nc2c1` (configuration not stated), the inhibition result in experiment [1], in experiment [3] and in experiment [4] was “inactive” throughout. Moreover, the IC50 was 5400 nM in experiment [2], 10500 nM in the experiment with CH1, 2300 nM in the experiment on A2780 and 7000 nM with SK-OV-3.
For the compound `CC1CCCCN1CCC(=O)Nc1ccc2cc3ccc(NC(=O)CCN4CCCCC4C)cc3nc2c1` (configuration not stated), the inhibition entry in experiment [1], in experiment [3] and in experiment [4] was “inactive” in each case. The IC50 was 2600 nM in experiment [2], 2300 nM in the experiment with CH1, 1750 nM in the experiment with A2780 and 3400 nM in the experiment on SK-OV-3.
Consider `CC1CCCN(CCC(=O)Nc2ccc3cc4ccc(NC(=O)CCN5CCCC(C)C5)cc4nc3c2)C1` (configuration not stated), for which the inhibition entry in experiment [1], in experiment [3] and in experiment [4] was “inactive” each time. The IC50 was found to be 4400 nM in experiment [2], 2200 nM in the experiment on CH1, 2100 nM in the experiment on A2780 and 2850 nM in the experiment on SK-OV-3.
Consider `CCC1CCCCN1CCC(=O)Nc1ccc2cc3ccc(NC(=O)CCN4CCCCC4CC)cc3nc2c1` (configuration not stated), for which the inhibition result in experiment [1], in experiment [3] and in experiment [4] was “inactive” throughout. The IC50 in experiment [2] was 2700 nM; with CH1, 2200 nM; in the experiment with A2780 it was 2200 nM; with SK-OV-3, 3900 nM.

Values taken from ChEMBL document CHEMBL1132094, “Human telomerase inhibition by substituted acridine derivatives” (Bioorg Med Chem Lett, 1999).
